row,melting point,SMILES
1,271 to 272 °C (dec.),"O=C(O)c1ccc(NC(=O)C(CC2CCCC2)c2ccc(-c3ccccc3)cc2)nc1 (centres unmarked) [Example 23, 6-(2-Biphenyl-4-yl-3-cyclopentyl-propionylamino)-nicotinic acid]"
2,91 to 95 °C,"CNC(=O)NC(=O)C(CC1CCCC1)c1ccc(-c2ccc3[nH]ccc3c2)cc1 (centres unmarked) [Example 37, 1-{3-Cyclopentyl-2-[4-(1H-indol-5-yl)-phenyl]-propionyl}-3-methyl-urea]"
3,184 to 185 °C,"NC(=O)NC(=O)C(CC1CCCC1)c1ccc(-c2ccccc2)cc1 (centres unmarked) [Example 33, (2-Biphenyl-4-yl-3-cyclopentyl-propionyl) urea]"
4,132 to 134 °C,"O=C(Nc1nccs1)[C@H](CC1CCCC1)c1ccc(-c2ccccc2)cc1 [Example 4, (2R)-2-Biphenyl-4-yl-3-cyclopentyl-N-thiazol-2-yl-propionamide]"
5,195 to 197 °C,"CNC(=O)NC(=O)C(CC1CCCC1)c1ccc(-c2ccccc2)cc1 (centres unmarked) [Example 34, 1-(2-Biphenyl-4-yl-3-cyclopentyl-propionyl)-3-methyl urea]"
6,85 to 88 °C,"CNC(=O)NC(=O)C(CC1CCCC1)c1ccc(-c2cccc3ccccc23)cc1 (centres unmarked) [Example 35, 1-[3-Cyclopentyl-2-(4-naphthalen-1-yl-phenyl)-propionyl]-3-methyl urea]"
7,194 to 195 °C,"O=C(Nc1nccs1)C(CC1CCCC1)c1ccc(-c2ccccc2)cc1 (centres unmarked) [Example 1, 2-Biphenyl-4-yl-3-cyclopentyl-N-thiazol-2-yl-propionamide]"
8,63 to 65 °C,"COC(=O)c1ccc(NC(=O)C(CC2CCCC2)c2ccc(-c3ccccc3)cc2)nc1 (centres unmarked) [Example 22, 6-(2-Biphenyl-4-yl-3-cyclopentyl-propionylamino)-nicotinic acid methyl ester]"
9,158 to 160 °C,"CNC(=O)NC(=O)C(CC1CCCC1)c1ccc(-c2cccnc2)cc1 (centres unmarked) [Example 36, 1-[3-Cyclopentyl-2-(4-pyridin-3-yl-phenyl)-propionyl]-3-methyl-urea]"
10,98 to 101 °C,"COC(=O)c1csc(NC(=O)C(CC2CCCC2)c2ccc(-c3ccccc3)cc2)n1 (centres unmarked) [Example 2, 2-(2-Biphenyl-4-yl-3-cyclopentyl-propionylamino)-thiazole-4-carboxylic acid methyl ester]"

# Continued, compound first:
row,SMILES,melting point
1,"O=C(Nc1nc(CO)cs1)C(CC1CCCC1)c1ccc(-c2ccccc2)cc1 (centres unmarked) [Example 3, 2-Biphenyl-4-yl-3-cyclopentyl-N-(4-hydroxymethyl-thiazol-2-yl)-propionamide]",102 to 104 °C
2,"O=C(Nc1nccs1)C(CC1CCCC1)c1ccc(-c2ccc3[nH]ccc3c2)cc1 (centres unmarked) [Example 10, 3-Cyclopentyl-2-[4-(1H-indol-5-yl)-phenyl]-N-thiazol-2-yl-propionamide]",112 to 115 °C
3,"O=C(Nc1nccs1)C(CC1CCCC1)c1ccc(-c2cccc3ccccc23)cc1 (centres unmarked) [Example 5, 3-Cyclopentyl-2-(4-naphthalen-1-yl-phenyl)-N-thiazol-2-yl-propionamide]",202 to 204 °C
4,"O=C(Nc1nccs1)C(CC1CCCC1)c1ccc(-c2cccnc2)cc1 (centres unmarked) [Example 8, 3-Cyclopentyl-2-(4-pyridin-3-yl-phenyl)-N-thiazol-2-yl-propionamide]",48 to 52 °C
5,"O=C(Nc1nccs1)C(CC1CCCC1)c1ccc(N2CCOCC2)cc1 (centres unmarked) [Example 18, 3-Cyclopentyl-2-(4-morpholin-4-yl-phenyl)-N-thiazol-2-yl-propionamide]",244 to 246 °C
6,"O=C(Nc1nccs1)C(CC1CCCC1)c1ccc(-c2cccs2)cc1 (centres unmarked) [Example 7, 3-Cyclopentyl-N-thiazol-2-yl-2-(4-thiophen-2-yl-phenyl)-propionamide]",194 °C (dec.)
7,"O=C(Nc1ccc(CO)cn1)C(CC1CCCC1)c1ccc(-c2ccccc2)cc1 (centres unmarked) [Example 24, 2-Biphenyl-4-yl-3-cyclopentyl-N-(5-hydroxymethyl-pyridin-2-yl)-propionamide]",67 to 70 °C
8,"O=C(Nc1ccccn1)C(CC1CCCC1)c1ccc(-c2ccccc2)cc1 (centres unmarked) [Example 21, 2-Biphenyl-4-yl-3-cyclopentyl-N-pyridin-2-yl-propionamide]",57 to 59 °C
9,"O=C(Nc1nc(CCO)cs1)C(CC1CCCC1)c1ccc(-c2cccc3ccccc23)cc1 (centres unmarked) [Example 6, 3-Cyclopentyl-N-[4-(2-hydroxyethyl)-thiazol-2-yl]-2-(4-naphthalen-1-yl-phenyl)-propionamide]",84 to 87 °C
10,"O=C(Nc1nccs1)C(CC1CCCC1)c1ccc(S(=O)(=O)C2CCCC2)cc1 (centres unmarked) [Example 19, 2-(4-Cyclopentanesulfonyl-phenyl)-3-cyclopentyl-N-thiazol-2-yl-propionamide]",180 to 182 °C
11,"O=C(Nc1nccs1)C(CC1CCCC1)c1ccc(Oc2ccccc2)cc1 (centres unmarked) [Example 12, 3-Cyclopentyl-2-(4-phenoxy-phenyl)-N-thiazol-2-yl-propionamide]",154.9 to 155.1 °C
12,"O=C(Nc1ccccn1)C(CC1CCCC1)c1ccc(-c2ccncc2)cc1 (centres unmarked) [Example 29, 3-Cyclopentyl-N-pyridin-2-yl-2-(4-pyridin-4-yl-phenyl)-propionamide]",165 to 167 °C
13,"O=C(Nc1ccccn1)C(CC1CCCC1)c1ccc(-c2cccc3ccccc23)cc1 (centres unmarked) [Example 25, 3-Cyclopentyl-2-(4-naphthalen-1-yl-phenyl)-N-pyridin-2-yl-propionamide]",73 to 77 °C
14,"CNC(=O)NC(=O)C(CC1CCCC1)c1ccc(S(=O)(=O)C2CCCCC2)cc1 (centres unmarked) [Example 40, 1-[2-(4-Cyclohexanesulfonyl-phenyl)-3-cyclopentyl-propionyl]-3-methyl-urea]",244 to 246 °C
15,"O=C(Nc1ccc(CO)cn1)C(CC1CCCC1)c1ccc(-c2cccc3ccccc23)cc1 (centres unmarked) [Example 27, 3-Cyclopentyl-N-(5-hydroxymethyl-pyridin-2-yl)-2-(4-naphthalen-1-yl-phenyl)-propionamide]",72 to 75 °C
16,"O=C(O)c1ccc(NC(=O)C(CC2CCCC2)c2ccc(-c3cccc4ccccc34)cc2)nc1 (centres unmarked) [Example 26, 6-[3-Cyclopentyl-2-(4-naphthalen-1-yl-phenyl)-propionylamino]-nicotinic acid]",155 to 158 °C
17,"O=C(Nc1ccccn1)C(CC1CCCC1)c1ccc(-c2cccnc2)cc1 (centres unmarked) [Example 28, 3-Cyclopentyl-N-pyridin-2-yl-2-(4-pyridin-3-yl-phenyl)-propionamide]",139 to 140 °C
18,"O=C(Nc1nccs1)C(CC1CCCC1)c1ccc(S(=O)(=O)c2ncc[nH]2)cc1 (centres unmarked) [Example 20, 3-Cyclopentyl-2-[4-(1H-imidazole-2-sulfonyl)-phenyl]-N-thiazol-2-yl-propionamide]",249 to 251 °C
19,"O=C(Nc1nc(CO)cs1)C(CC1CCCC1)c1ccc(Oc2ccccc2)cc1 (centres unmarked) [Example 13, 3-Cyclopentyl-N-(4-hydroxymethyl-thiazol-2-yl)-2-(4-phenoxy-phenyl)-propionamide]",83.7 to 87 °C
20,"CNC(=O)NC(=O)C(CC1CCCC1)c1ccc(N2CCOCC2)cc1 (centres unmarked) [Example 39, 1-[3-Cyclopentyl-2-(4-morpholin-4-yl-phenyl)-propionyl]-3-methyl-urea]",206 to 207 °C
21,"O=C(Nc1nccs1)C(CC1CCCC1)c1ccc(OCc2ccccc2)cc1 (centres unmarked) [Example 11, 2-(4-Benzyloxy-phenyl)-3-cyclopentyl-N-thiazol-2-yl-propionamide]",48 to 50 °C
22,"O=C(Nc1nccs1)C(CC1CCCC1)c1ccc(-c2ccncc2)cc1 (centres unmarked) [Example 9, 3-Cyclopentyl-2-(4-pyridin-4-yl-phenyl)-N-thiazol-2-yl-propionamide]",213 to 215 °C

# From US6384220B2, “Para-aryl or heterocyclic substituted phenyl glucokinase activators” (Hoffmann-La Roche Inc., priority 2000, dated 2002)
